For the assay, the target named is T1, Human IP6K1 (Homo sapiens, UniProt Q92551).
T1 construct: GST (N, cleaved yes); made in house; host or cells: C43 E. coli, pGEX-6P-2
Put plainly: IP6K1 high-throughput screen of the Sigma LOPAC (ADP-Glo Max, single point).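 Also: final compound concentration 10µM in 5% DMSO.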 The assay is classed as biochemical. In general terms: In ADP-Glo the light output rises with the ADP produced.

[1] abbreviates: LOPAC single-point screen, ADP-Glo Max raw signal per well.
Setting [2] is: LOPAC single-point screen, Z-score against plate average and StDev.
Where [3] appears, read: Sigma LOPAC single-point screen, ADP-Glo Max raw signal per well.
Where [4] appears, read: Sigma LOPAC single-point screen, Z-score from plate average and StDev.
Where [5] appears, read: LOPAC single-point screen, Z-score from raw signal with plate average and StDev.
Setting [6] is: LOPAC single-point screen, ADP-Glo Max luminescence raw signal per well.
Setting [7] is: LOPAC single-point screen, Z-score from plate average and StDev.
Setting [8] is: LOPAC single-point screen, Z-score relative to plate average and StDev.

Each structure is given as a SMILES string. Where a name gives a salt, the structure may show the parent alone. Read-outs that look alike come from different tables or passages of the source.

T1 sequence (Q92551 whole entry): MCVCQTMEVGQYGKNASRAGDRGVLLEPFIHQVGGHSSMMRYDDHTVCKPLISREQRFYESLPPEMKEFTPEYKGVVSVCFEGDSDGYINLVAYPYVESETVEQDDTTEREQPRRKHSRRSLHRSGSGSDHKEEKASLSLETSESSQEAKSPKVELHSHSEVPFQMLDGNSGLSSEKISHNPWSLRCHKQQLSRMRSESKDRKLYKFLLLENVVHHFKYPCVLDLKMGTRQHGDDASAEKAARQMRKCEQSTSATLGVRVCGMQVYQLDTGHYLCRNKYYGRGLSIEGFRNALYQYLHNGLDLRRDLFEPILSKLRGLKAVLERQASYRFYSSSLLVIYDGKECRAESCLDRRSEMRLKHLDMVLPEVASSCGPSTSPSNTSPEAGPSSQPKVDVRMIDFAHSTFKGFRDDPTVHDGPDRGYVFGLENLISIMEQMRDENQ

Take `CC(=O)[C@]1(O)Cc2c(O)c3c(c(O)c2[C@@H](O[C@H]2C[C@H](N)[C@H](O)[C@H](C)O2)C1)C(=O)c1ccccc1C3=O` [Idarubicin]: under setting [1], the “Raw Signal” value is 55218. The Z-score under setting [2] stood at 0.01035.

With `c1ccc2c(c1)OCC(C1=NCCN1)O2` (stereo not drawn) [Idazoxan hydrochloride], the “Raw Signal” value under setting [3] stood at 58161. Moreover, the Z-score under setting [4] turned out to be 0.633.

Consider `CC(C(O)c1ccc(O)cc1)N1CCC(Cc2ccccc2)CC1.CC(C(O)c1ccc(O)cc1)N1CCC(Cc2ccccc2)CC1.O=C(O)C(O)C(O)C(=O)O` (stereo not drawn) [Ifenprodil tartrate], for which the “Raw Signal” value under setting [1] was 56294. Also, under setting [2], the Z-score is 0.3193.

For the molecule `O=C1CCC(c2ccc(-n3ccnc3)cc2)=NN1` [Imazodan], the “Raw Signal” value under setting [3] is recorded as 60009. The Z-score under setting [4] came to 0.9834.

Regarding `N=C(N)SCCc1cnc[nH]1` [Imetit dihydrobromide], the “Raw Signal” value is 60718 and the Z-score was 1.063.

Turning to `Cl.O=C(O)Cc1c[nH]cn1` [Imidazole-4-acetic acid hydrochloride], the “Raw Signal” value under setting [1] came out at 55616. The molecule further showed a Z-score under setting [2] of 0.09118.

On to `CCn1ccnc1CC1COc2ccccc2O1` (stereo not drawn) [Imiloxan hydrochloride], for which the “Raw Signal” value under setting [1] was determined as 52626. The molecule further returned a Z-score under setting [5] of -0.297.

Regarding `CN(C)CCCN1c2ccccc2CCc2ccccc21` [Imipramine hydrochloride], the “Raw Signal” value under setting [1] was determined as 53704. Moreover, under setting [5], the Z-score was -0.1159.

For `CN[C@@H]1C[C@@H](c2ccc(Cl)c(Cl)c2)c2ccccc21` [Indatraline hydrochloride], the “Raw Signal” value under setting [1] was 53926. This molecule also returned a Z-score under setting [2] of -0.07855.

As for `O=C1Nc2ccccc2/C1=C1/Nc2ccccc2/C1=N\O` [Indirubin-3 -oxime], the “Raw Signal” value under setting [3] amounted to 58050. This molecule showed a Z-score under setting [4] of 0.5855.

For the molecule `COc1ccc2c(c1)c(CC(=O)N1CCOCC1)c(C)n2C(=O)c1ccc(Cl)cc1` [Indomethacin morpholinylamide], the “Raw Signal” value under setting [1] turned out to be 52785. The Z-score under setting [5] is given as -0.2703.

In the case of `COc1ccc2c(c1)c(CC(=O)O)c(C)n2C(=O)c1ccc(Cl)cc1` [Indomethacin], the “Raw Signal” value under setting [1] came to 54719. The molecule also displayed a Z-score under setting [2] of 0.05469.

In the case of `NC(=O)CI` [Iodoacetamide], the “Raw Signal” value under setting [6] is 64727. The Z-score under setting [7] was found to be 1.942.

With `CC(C)NC(C)Cc1ccc(I)cc1` (stereo not drawn) [Iofetamine hydrochloride], the “Raw Signal” value under setting [1] was determined as 55439. Moreover, the Z-score under setting [2] was 0.1757.

As for `CC(C)[N+]1(C)[C@@H]2CC[C@H]1C[C@@H](OC(=O)C(CO)c1ccccc1)C2` (stereo partly drawn) [Ipratropium bromide], the “Raw Signal” value under setting [3] came to 56944. Under setting [4], the Z-score came out at 0.3609.

With `CC(C)NNC(=O)c1ccncc1.O=P(O)(O)O` [Iproniazid phosphate], the “Raw Signal” value under setting [3] amounted to 60567. For the same molecule, the Z-score under setting [4] was found to be 1.037.

Regarding `O=C(O)C1=CCNCC1` [Isoguvacine hydrochloride], the “Raw Signal” value under setting [1] is recorded as 53600. The molecule also gave a Z-score under setting [5] of -0.3182.

On to `O=C(/C=C/c1ccc(O)cc1)c1ccc(O)cc1O` [Isoliquiritigenin], for which the “Raw Signal” value under setting [1] was 53778. The Z-score under setting [5] is -0.1034.

As to `O=C(O)C1CCNCC1` [Isonipecotic acid], the “Raw Signal” value under setting [1] is listed as 51826. The molecule also showed a Z-score under setting [5] of -0.4314.

As for `CCC(NC(C)C)C(O)c1ccc(O)c(O)c1.CS(=O)(=O)O` (stereo not drawn) [Isotharine mesylate], under setting [1], the “Raw Signal” value was 54100. The Z-score under setting [2] was -0.04932.

Consider `Nc1nc2[nH]c(=O)cnc2c(=O)[nH]1` [Isoxanthopterin], for which the “Raw Signal” value under setting [3] came out at 59100. Under setting [4], the Z-score was determined as 0.7908.

With `CC[C@H](C)[C@H]1O[C@]2(CC[C@@H]1C)C[C@@H]1C[C@@H](C/C=C(\C)[C@@H](O[C@H]3C[C@H](OC)[C@@H](O[C@H]4C[C@H](OC)[C@@H](O)[C@H](C)O4)[C@H](C)O3)[C@@H](C)/C=C/C=C3\CO[C@@H]4[C@H](O)C(C)=C[C@@H](C(=O)O1)[C@]34O)O2` [Ivermectin], the “Raw Signal” value under setting [1] stood at 51728. For the same molecule, under setting [5], the Z-score is recorded as -0.4479.

Take `CCCn1c(C)c(C(=O)c2cccc3ccccc23)c2ccccc21` [JWH-015]: the “Raw Signal” value under setting [1] is recorded as 54462. The same molecule gave a Z-score under setting [2] of 0.01151.

As for `C=C(C)[C@H]1CN[C@H](C(=O)O)[C@H]1CC(=O)O` [Kainic acid], the “Raw Signal” value came out at 54485 and the Z-score is on record as 0.01537.

As to `CCN1C[C@]2(C)CC[C@H](O)[C@]34C1[C@@H](C[C@H]23)[C@@]1(O)C[C@H](OC)[C@H]2C[C@@H]4[C@@H]1[C@H]2O` [Karakoline], the “Raw Signal” value under setting [1] amounted to 53043. The Z-score under setting [5] is -0.2269.

Regarding `O=C1Cc2c([nH]c3ccc(Br)cc23)-c2ccccc2N1` [Kenpaullone], the “Raw Signal” value under setting [6] is 65095. The Z-score under setting [7] was 1.798.

In the case of `O=C(c1ccc(F)cc1)C1CCN(CCn2c(=O)[nH]c3ccccc3c2=O)CC1` [Ketanserin tartrate], the “Raw Signal” value under setting [3] was 61310. In addition, the Z-score under setting [4] is reported as 1.027.

Take `CC(=O)N1CCN(c2ccc(OCC3COC(Cn4ccnc4)(c4ccc(Cl)cc4Cl)O3)cc2)CC1` (stereo not drawn) [Ketoconazole]: under setting [6], the “Raw Signal” value is reported as 49591. Under setting [8], this molecule returned a Z-score of -0.8069.

As for `CC(C(=O)O)c1cccc(C(=O)c2ccccc2)c1` (stereo not drawn) [Ketoprofen], the “Raw Signal” value under setting [1] came to 53403. Moreover, the Z-score under setting [5] is listed as -0.1664.

For the molecule `NC(CO)(CO)CO.O=C(c1ccccc1)c1ccc2n1CCC2C(=O)O` (stereo not drawn) [Ketorolac tris salt], the “Raw Signal” value under setting [6] turned out to be 48098. Besides, the Z-score under setting [8] is reported as -1.058.

Turning to `CN1CCC(=C2c3ccccc3CC(=O)c3sccc32)CC1` [Ketotifen fumarate], the “Raw Signal” value under setting [6] was 50782. Under setting [8], this molecule yielded a Z-score of -0.6068.

With `O=C(O)c1cc(=O)c2ccccc2[nH]1` [Kynurenic acid], the “Raw Signal” value under setting [1] was determined as 53243. Under setting [5], this molecule displayed a Z-score of -0.1933.

On to `NC[C@H](O)c1ccc(O)c(O)c1.O=C(O)C(O)C(O)C(=O)O` [L(-)-Norepinephrine bitartrate], for which, under setting [6], the “Raw Signal” value is listed as 29897. For the same molecule, the Z-score under setting [8] is given as -4.934.

In the case of `N[C@@H](CCCC(=O)O)C(=O)O` [L-2-aminoadipic acid], the “Raw Signal” value under setting [1] turned out to be 59199. The molecule also returned a Z-score under setting [2] of 0.2265.

Turning to `N[C@@H](Cc1ccc(O)c(O)c1)C(=O)O` [L-3,4-Dihydroxyphenylalanine], under setting [6], the “Raw Signal” value is listed as 43363. The Z-score under setting [8] was -2.397.

On to `CCCCOC(=O)NS(=O)(=O)c1sc(CC(C)C)cc1-c1ccc(Cn2c(CC)nc3c(C)cc(C)nc32)cc1` [L-162,313], for which, under setting [1], the “Raw Signal” value is reported as 54291. Besides, the Z-score under setting [2] is -0.01722.

`CCCc1c(OCCCOc2ccc(OCC(=O)O)cc2)ccc(C(C)=O)c1O` [L-165,041]: the “Raw Signal” value under setting [3] is recorded as 57961. The same molecule came in with a Z-score under setting [4] of 0.5674.

Consider `Cc1ccccc1N1CCN(S(=O)(=O)CC23CCC(CC2NC(=O)C(N)CCS(C)(=O)=O)C3(C)C)CC1` [L-368,899], for which, under setting [6], the “Raw Signal” value worked out at 50329. The molecule further had a Z-score under setting [8] of -0.6829.

`Cc1c(CC(C)(C)C(=O)O)n(Cc2ccc(Cl)cc2)c2ccc(F)cc12` [L-655,240]: under setting [6], the “Raw Signal” value came to 51424. In addition, under setting [8], the Z-score is reported as -0.499.

In the case of `CCOC(=O)c1ncn2c1[C@@H]1CCCN1C(=O)c1cc(OC)ccc1-2` [L-655,708], the “Raw Signal” value under setting [1] was found to be 54093. The same molecule returned a Z-score under setting [2] of -0.05049.

For `Cl.c1ccc(CN2CCC3(CCCc4ccccc43)CC2)cc1` [L-687,384 hydrochloride], the “Raw Signal” value under setting [3] worked out at 58533. Moreover, the Z-score under setting [4] was 0.6955.

Consider `O=c1[nH]c2cc(Cl)ccc2c(O)c1-c1cccc(Oc2ccccc2)c1` [L-701,324], for which the “Raw Signal” value under setting [6] was found to be 49431. For the same molecule, under setting [8], the Z-score is recorded as -0.8338.

For the molecule `Ic1ccccc1CNC1C2CCN(CC2)C1C(c1ccccc1)c1ccccc1.O=C(O)C(=O)O` [L-703,606 oxalate], the “Raw Signal” value under setting [1] was 52840. The Z-score under setting [5] was -0.261.

As to `CC(=O)N[C@@H](Cc1c[nH]c2ccccc12)C(=O)OCc1cc(C(F)(F)F)cc(C(F)(F)F)c1` [L-732,138], under setting [6], the “Raw Signal” value stood at 53722. In addition, the Z-score under setting [8] is on record as -0.7382.

As for `Cl.FC(F)(F)c1cc(CO[C@H]2CCCN[C@H]2c2ccccc2)cc(C(F)(F)F)c1` [L-733,060 hydrochloride], the “Raw Signal” value under setting [1] is recorded as 52038. Under setting [5], this molecule gave a Z-score of -0.3958.

Consider `OC1(c2ccc(Cl)cc2)CCN(Cc2c[nH]c3ccccc23)CC1` [L-741,626], for which the “Raw Signal” value under setting [6] was determined as 51249. Under setting [8], this molecule showed a Z-score of -0.5284.

Take `Cl.Clc1ccc(N2CCN(Cc3c[nH]c4ncccc34)CC2)cc1` [L-745,870 hydrochloride]: the “Raw Signal” value under setting [1] came to 55866. Besides, under setting [2], the Z-score came out at 0.2474.

For the molecule `Cl.Cl.Cl.Ic1ccc(N2CCN(Cc3c[nH]c4ncccc34)CC2)cc1` [L-750,667 trihydrochloride], the “Raw Signal” value under setting [3] worked out at 61468. Under setting [4], this molecule returned a Z-score of 1.1887.

`COc1cc2nc(N3CCN(C(=O)OCc4ccccc4)[C@H](C(=O)NC(C)(C)C)C3)nc(N)c2cc1OC` [L-765,314]: the Z-score under setting [5] is -0.2706.

As to `N=C(N)NCCC[C@H](N)C(=O)O` [L-Arginine], under setting [1], the “Raw Signal” value came out at 58902. In addition, the Z-score under setting [2] was 0.1742.

For the molecule `N[C@@H](CC(=O)O)C(=O)O` [L-Aspartic acid], under setting [1], the “Raw Signal” value is given as 58223. In addition, the Z-score under setting [2] is 0.05458.

For the molecule `CCCCS(=N)(=O)CC[C@H](N)C(=O)O` (stereo partly drawn) [L-Buthionine-sulfoximine], the “Raw Signal” value under setting [3] is reported as 61284. Further, under setting [4], the Z-score is 0.5937.

Regarding `NC(N)=NOCC[C@H](N)C(=O)O.O=S(=O)(O)O` [L-Canavanine sulfate], under setting [3], the “Raw Signal” value came to 61689. The same molecule came in with a Z-score under setting [4] of 0.665.
